target: Matrix protein 2 (Influenza A virus (A/Udorn/307/1972(H3N2)), UniProt P0DOF8, S31N)

Compound | Kd
CCC1(N)C2CC3CC(C2)CC1C3 (centres undefined) | Not Active
NC1C2CC3CC(C2)CC1C3 (centres undefined) | Not Active
CC1(N)C2CC3CC(C2)CC1C3 (centres undefined) | Not Active
NC12CC3CC(CC(C3)C1)C2 [AMANTADINE] | Not Active

From ChEMBL document CHEMBL4004820 (J Med Chem, 2017)
